± gives the expanded uncertainty stated by the source.
Test: molar heat capacity at constant pressure
Settings: 101.33 kPa, Small sample (50 mg) DSC

CCCCCC[n+]1cccc2ccccc21.O=S(=O)([N-]S(=O)(=O)C(F)(F)F)C(F)(F)F [1-hexylquinolinium bis(trifluoromethylsulfonyl)amide]
molar heat capacity at constant pressure (283.12 K, Crystal): 420.81 ± 42 J/K/mol | molar heat capacity at constant pressure (283.72 K, Crystal): 421.99 ± 43 J/K/mol | molar heat capacity at constant pressure (284.32 K, Crystal): 423.19 ± 43 J/K/mol | molar heat capacity at constant pressure (284.92 K, Crystal): 424.39 ± 43 J/K/mol | molar heat capacity at constant pressure (285.52 K, Crystal): 425.58 ± 43 J/K/mol | molar heat capacity at constant pressure (286.12 K, Crystal): 426.78 ± 43 J/K/mol | molar heat capacity at constant pressure (286.72 K, Crystal): 427.94 ± 43 J/K/mol | molar heat capacity at constant pressure (287.32 K, Crystal): 429.07 ± 43 J/K/mol | molar heat capacity at constant pressure (287.92 K, Crystal): 430.21 ± 43 J/K/mol | molar heat capacity at constant pressure (288.52 K, Crystal): 431.37 ± 44 J/K/mol | molar heat capacity at constant pressure (289.12 K, Crystal): 432.53 ± 44 J/K/mol | molar heat capacity at constant pressure (289.72 K, Crystal): 433.71 ± 44 J/K/mol | molar heat capacity at constant pressure (290.32 K, Crystal): 434.96 ± 44 J/K/mol | molar heat capacity at constant pressure (290.92 K, Crystal): 436.29 ± 44 J/K/mol | molar heat capacity at constant pressure (291.52 K, Crystal): 437.63 ± 44 J/K/mol | molar heat capacity at constant pressure (292.12 K, Crystal): 439.04 ± 44 J/K/mol | molar heat capacity at constant pressure (292.72 K, Crystal): 440.54 ± 44 J/K/mol | molar heat capacity at constant pressure (293.32 K, Crystal): 442.04 ± 45 J/K/mol | molar heat capacity at constant pressure (293.92 K, Crystal): 443.6 ± 45 J/K/mol | molar heat capacity at constant pressure (294.52 K, Crystal): 445.19 ± 45 J/K/mol | molar heat capacity at constant pressure (295.12 K, Crystal): 446.81 ± 45 J/K/mol | molar heat capacity at constant pressure (295.72 K, Crystal): 448.46 ± 45 J/K/mol | molar heat capacity at constant pressure (296.32 K, Crystal): 450.18 ± 45 J/K/mol | molar heat capacity at constant pressure (296.92 K, Crystal): 451.92 ± 46 J/K/mol | molar heat capacity at constant pressure (297.52 K, Crystal): 453.71 ± 46 J/K/mol | molar heat capacity at constant pressure (298.12 K, Crystal): 455.57 ± 46 J/K/mol | molar heat capacity at constant pressure (298.72 K, Crystal): 457.56 ± 46 J/K/mol | molar heat capacity at constant pressure (299.32 K, Crystal): 459.55 ± 46 J/K/mol | molar heat capacity at constant pressure (299.92 K, Crystal): 461.52 ± 47 J/K/mol | molar heat capacity at constant pressure (300.52 K, Crystal): 463.69 ± 47 J/K/mol | molar heat capacity at constant pressure (301.12 K, Crystal): 465.97 ± 47 J/K/mol | molar heat capacity at constant pressure (301.72 K, Crystal): 468.26 ± 47 J/K/mol | molar heat capacity at constant pressure (302.32 K, Crystal): 470.81 ± 48 J/K/mol | molar heat capacity at constant pressure (302.92 K, Crystal): 473.57 ± 48 J/K/mol | molar heat capacity at constant pressure (303.52 K, Crystal): 476.39 ± 48 J/K/mol | molar heat capacity at constant pressure (304.12 K, Crystal): 479.52 ± 48 J/K/mol | molar heat capacity at constant pressure (304.73 K, Crystal): 483.2 ± 49 J/K/mol | molar heat capacity at constant pressure (305.33 K, Crystal): 487.13 ± 49 J/K/mol | molar heat capacity at constant pressure (305.93 K, Crystal): 491.57 ± 50 J/K/mol | molar heat capacity at constant pressure (306.53 K, Crystal): 497.37 ± 50 J/K/mol | molar heat capacity at constant pressure (307.13 K, Crystal): 504.13 ± 51 J/K/mol | molar heat capacity at constant pressure (307.72 K, Crystal): 510.47 ± 52 J/K/mol | molar heat capacity at constant pressure (308.32 K, Crystal): 518.68 ± 52 J/K/mol | molar heat capacity at constant pressure (308.92 K, Crystal): 531.59 ± 54 J/K/mol | molar heat capacity at constant pressure (309.52 K, Crystal): 546.05 ± 55 J/K/mol | molar heat capacity at constant pressure (310.12 K, Crystal): 573.74 ± 59 J/K/mol | molar heat capacity at constant pressure (310.72 K, Crystal): 653.81 ± 69 J/K/mol | molar heat capacity at constant pressure (311.32 K, Crystal): 795.64 ± 83 J/K/mol | molar heat capacity at constant pressure (311.92 K, Crystal): 921.44 ± 100 J/K/mol | molar heat capacity at constant pressure (312.51 K, Crystal): 1266.8 ± 170 J/K/mol | molar heat capacity at constant pressure (313.09 K, Crystal): 2288.5 ± 300 J/K/mol | molar heat capacity at constant pressure (313.66 K, Crystal): 3477.3 ± 420 J/K/mol | molar heat capacity at constant pressure (314.23 K, Crystal): 4856 ± 550 J/K/mol | molar heat capacity at constant pressure (314.8 K, Crystal): 6301.5 ± 680 J/K/mol | molar heat capacity at constant pressure (315.37 K, Crystal): 7631.8 ± 810 J/K/mol | molar heat capacity at constant pressure (315.94 K, Crystal): 9002.3 ± 920 J/K/mol | molar heat capacity at constant pressure (316.54 K, Crystal): 9157.6 ± 930 J/K/mol | molar heat capacity at constant pressure (317.17 K, Liquid): 7971.7 ± 830 J/K/mol | molar heat capacity at constant pressure (317.8 K, Liquid): 6765.5 ± 720 J/K/mol | molar heat capacity at constant pressure (318.43 K, Liquid): 5315.4 ± 580 J/K/mol | molar heat capacity at constant pressure (319.06 K, Liquid): 3937.3 ± 450 J/K/mol | molar heat capacity at constant pressure (319.69 K, Liquid): 2716.7 ± 330 J/K/mol | molar heat capacity at constant pressure (320.31 K, Liquid): 1646.2 ± 210 J/K/mol | molar heat capacity at constant pressure (320.92 K, Liquid): 1124.2 ± 130 J/K/mol | molar heat capacity at constant pressure (321.52 K, Liquid): 783.96 ± 90 J/K/mol | molar heat capacity at constant pressure (322.12 K, Liquid): 605.73 ± 64 J/K/mol | molar heat capacity at constant pressure (322.72 K, Liquid): 578.47 ± 58 J/K/mol | molar heat capacity at constant pressure (323.33 K, Liquid): 579.09 ± 58 J/K/mol | molar heat capacity at constant pressure (323.93 K, Liquid): 579.53 ± 59 J/K/mol | molar heat capacity at constant pressure (324.53 K, Liquid): 579.5 ± 59 J/K/mol | molar heat capacity at constant pressure (325.13 K, Liquid): 579.81 ± 59 J/K/mol | molar heat capacity at constant pressure (325.73 K, Liquid): 580.31 ± 59 J/K/mol | molar heat capacity at constant pressure (326.33 K, Liquid): 580.35 ± 59 J/K/mol | molar heat capacity at constant pressure (326.93 K, Liquid): 580.48 ± 59 J/K/mol | molar heat capacity at constant pressure (327.53 K, Liquid): 580.91 ± 59 J/K/mol | molar heat capacity at constant pressure (329.93 K, Liquid): 582.05 ± 59 J/K/mol | molar heat capacity at constant pressure (330.53 K, Liquid): 582.3 ± 59 J/K/mol | molar heat capacity at constant pressure (331.13 K, Liquid): 582.61 ± 59 J/K/mol | molar heat capacity at constant pressure (331.73 K, Liquid): 582.85 ± 59 J/K/mol | molar heat capacity at constant pressure (332.33 K, Liquid): 583.14 ± 59 J/K/mol | molar heat capacity at constant pressure (332.93 K, Liquid): 583.5 ± 59 J/K/mol | molar heat capacity at constant pressure (333.53 K, Liquid): 583.82 ± 59 J/K/mol | molar heat capacity at constant pressure (334.13 K, Liquid): 584.2 ± 59 J/K/mol | molar heat capacity at constant pressure (334.73 K, Liquid): 584.61 ± 59 J/K/mol | molar heat capacity at constant pressure (335.33 K, Liquid): 585.06 ± 59 J/K/mol | molar heat capacity at constant pressure (335.93 K, Liquid): 585.62 ± 59 J/K/mol | molar heat capacity at constant pressure (336.53 K, Liquid): 586.11 ± 59 J/K/mol | molar heat capacity at constant pressure (337.13 K, Liquid): 586.52 ± 59 J/K/mol | molar heat capacity at constant pressure (337.73 K, Liquid): 586.92 ± 59 J/K/mol | molar heat capacity at constant pressure (338.33 K, Liquid): 587.33 ± 59 J/K/mol | molar heat capacity at constant pressure (338.93 K, Liquid): 587.69 ± 59 J/K/mol | molar heat capacity at constant pressure (339.53 K, Liquid): 587.94 ± 59 J/K/mol | molar heat capacity at constant pressure (340.13 K, Liquid): 588.08 ± 59 J/K/mol | molar heat capacity at constant pressure (340.73 K, Liquid): 588.35 ± 59 J/K/mol | molar heat capacity at constant pressure (341.33 K, Liquid): 588.62 ± 59 J/K/mol | molar heat capacity at constant pressure (341.93 K, Liquid): 588.83 ± 59 J/K/mol | molar heat capacity at constant pressure (342.54 K, Liquid): 589.03 ± 59 J/K/mol | molar heat capacity at constant pressure (343.13 K, Liquid): 589.23 ± 60 J/K/mol | molar heat capacity at constant pressure (343.73 K, Liquid): 589.47 ± 60 J/K/mol | molar heat capacity at constant pressure (344.33 K, Liquid): 589.68 ± 60 J/K/mol | molar heat capacity at constant pressure (344.93 K, Liquid): 589.8 ± 60 J/K/mol | molar heat capacity at constant pressure (345.53 K, Liquid): 589.91 ± 60 J/K/mol | molar heat capacity at constant pressure (346.13 K, Liquid): 590.01 ± 60 J/K/mol | molar heat capacity at constant pressure (346.73 K, Liquid): 590.17 ± 60 J/K/mol | molar heat capacity at constant pressure (347.33 K, Liquid): 590.33 ± 60 J/K/mol | molar heat capacity at constant pressure (347.93 K, Liquid): 590.52 ± 60 J/K/mol | molar heat capacity at constant pressure (348.53 K, Liquid): 590.79 ± 60 J/K/mol | molar heat capacity at constant pressure (349.13 K, Liquid): 591.11 ± 60 J/K/mol | molar heat capacity at constant pressure (349.73 K, Liquid): 591.46 ± 60 J/K/mol | molar heat capacity at constant pressure (350.33 K, Liquid): 591.81 ± 60 J/K/mol | molar heat capacity at constant pressure (350.93 K, Liquid): 592.11 ± 60 J/K/mol | molar heat capacity at constant pressure (351.53 K, Liquid): 592.4 ± 60 J/K/mol | molar heat capacity at constant pressure (352.13 K, Liquid): 592.64 ± 60 J/K/mol | molar heat capacity at constant pressure (352.73 K, Liquid): 592.89 ± 60 J/K/mol | molar heat capacity at constant pressure (353.33 K, Liquid): 593.12 ± 60 J/K/mol | molar heat capacity at constant pressure (353.93 K, Liquid): 593.32 ± 60 J/K/mol | molar heat capacity at constant pressure (354.53 K, Liquid): 593.58 ± 60 J/K/mol | molar heat capacity at constant pressure (355.13 K, Liquid): 593.86 ± 60 J/K/mol | molar heat capacity at constant pressure (355.73 K, Liquid): 594.11 ± 60 J/K/mol | molar heat capacity at constant pressure (356.33 K, Liquid): 594.37 ± 60 J/K/mol | molar heat capacity at constant pressure (356.93 K, Liquid): 594.62 ± 60 J/K/mol | molar heat capacity at constant pressure (357.53 K, Liquid): 594.9 ± 60 J/K/mol | molar heat capacity at constant pressure (358.13 K, Liquid): 595.2 ± 60 J/K/mol | molar heat capacity at constant pressure (358.73 K, Liquid): 595.42 ± 60 J/K/mol | molar heat capacity at constant pressure (359.33 K, Liquid): 595.58 ± 60 J/K/mol | molar heat capacity at constant pressure (359.93 K, Liquid): 595.78 ± 60 J/K/mol | molar heat capacity at constant pressure (360.53 K, Liquid): 595.96 ± 60 J/K/mol | molar heat capacity at constant pressure (361.13 K, Liquid): 596.12 ± 60 J/K/mol | molar heat capacity at constant pressure (361.73 K, Liquid): 596.19 ± 60 J/K/mol | molar heat capacity at constant pressure (362.33 K, Liquid): 596.29 ± 60 J/K/mol | molar heat capacity at constant pressure (362.93 K, Liquid): 596.51 ± 60 J/K/mol | molar heat capacity at constant pressure (363.53 K, Liquid): 596.79 ± 60 J/K/mol | molar heat capacity at constant pressure (364.13 K, Liquid): 597.06 ± 60 J/K/mol | molar heat capacity at constant pressure (364.73 K, Liquid): 597.35 ± 60 J/K/mol | molar heat capacity at constant pressure (365.33 K, Liquid): 597.68 ± 60 J/K/mol | molar heat capacity at constant pressure (365.93 K, Liquid): 598.06 ± 60 J/K/mol | molar heat capacity at constant pressure (366.53 K, Liquid): 598.36 ± 60 J/K/mol | molar heat capacity at constant pressure (367.13 K, Liquid): 598.59 ± 60 J/K/mol | molar heat capacity at constant pressure (367.73 K, Liquid): 598.82 ± 60 J/K/mol | molar heat capacity at constant pressure (368.33 K, Liquid): 599 ± 60 J/K/mol | molar heat capacity at constant pressure (368.93 K, Liquid): 599.12 ± 61 J/K/mol | molar heat capacity at constant pressure (369.53 K, Liquid): 599.24 ± 61 J/K/mol | molar heat capacity at constant pressure (370.13 K, Liquid): 599.38 ± 61 J/K/mol
